These results are taken from ChEMBL document CHEMBL1155358, “Unsaturated genistein disaccharide glycoside as a novel agent affecting microtubules” (2009).

Assay [1] relates to DU-145. As to the kind of experiment: Cell cycle arrest in human DU145 cells assessed as accumulation at < G2M phase at 5 uM after 24 hrs by flow cytometry using propidium iodide staining. The assay is classed as functional.
For assay [2], the system named is DU-145. The assay can be described thus: Cell cycle arrest in human DU145 cells assessed as accumulation at >G1 phase at 10 uM after 24 hrs by flow cytometry using propidium iodide staining. The assay is classed as functional. For orientation: Flow cytometry measures light scatter and fluorescence of single cells or particles in a stream.
Assay [3] deals with DU-145. As to the kind of experiment: Cell cycle arrest in human DU145 cells assessed as accumulation at < G2M phase at 10 uM after 24 hrs by flow cytometry using propidium iodide staining. The class given is functional.
Assay [4] has as its system DU-145. The assay can be described thus: Cell cycle arrest in human DU145 cells assessed as accumulation at >G1 phase at 5 uM after 24 hrs by flow cytometry using propidium iodide staining. The assay is classed as functional.
In assay [5] the test system is DU-145. The assay can be described thus: Cell cycle arrest in human DU145 cells assessed as accumulation at G2M phase relative to control. The assay is classed as functional.
Assay [6] deals with DU-145. As to the kind of experiment: Induction of apoptosis in human DU145 cells at interphase assessed as loosened of microtubule network at 5 uM after 24 hrs by beta tubulin immunofluorescent staining. The assay is classed as functional, cell-based.
Assay [7] deals with DU-145. As to the kind of experiment: Induction of apoptosis in human DU145 cells at interphase assessed as complete disappearance of microtubules at 25 uM after 24 hrs by beta tubulin immunofluorescent staining. The class given is functional, cell-based.
For assay [8], the system named is DU-145. As to the kind of experiment: Cell cycle arrest in human DU145 cells assessed as accumulation at G2M phase at 5 uM after 24 hrs by flow cytometry using propidium iodide staining. The assay is classed as functional.
Assay [9] has as its system DU-145. As to the kind of experiment: Cell cycle arrest in human DU145 cells assessed as accumulation at G1 phase at 5 uM after 24 hrs by flow cytometry using propidium iodide staining. The assay is classed as functional.
The subject of assay [10] is DU-145. The assay can be described thus: Cell cycle arrest in human DU145 cells assessed as accumulation between G1 phase and G2M phase at 5 uM after 24 hrs by flow cytometry using propidium iodide staining. The assay is classed as functional.
For assay [11], the system named is DU-145. As to the kind of experiment: Cell cycle arrest in human DU145 cells assessed as accumulation at G2M phase at 10 uM after 24 hrs by flow cytometry using propidium iodide staining. The assay is classed as functional.
Assay [12] deals with DU-145. As to the kind of experiment: Cell cycle arrest in human DU145 cells assessed as accumulation at G1 phase at 10 uM after 24 hrs by flow cytometry using propidium iodide staining. The assay is classed as functional.
In assay [13] the test system is DU-145. As to the kind of experiment: Cell cycle arrest in human DU145 cells assessed as accumulation between G1 phase and G2M phase at 10 uM after 24 hrs by flow cytometry using propidium iodide staining. The assay is classed as functional.
Assay [14] concerns DU-145. The assay can be described thus: Cell cycle arrest in human DU145 cells assessed as accumulation between G1 phase and G2M phase at 50 uM after 24 hrs by flow cytometry using propidium iodide staining. The assay is classed as functional.
For assay [15], the system named is DU-145. As to the kind of experiment: Cell cycle arrest in human DU145 cells assessed as accumulation at G2M phase at 100 uM after 24 hrs by flow cytometry using propidium iodide staining. The assay is classed as functional.
Assay [16] concerns DU-145. As to the kind of experiment: Cell cycle arrest in human DU145 cells assessed as accumulation at G1 phase at 100 uM after 24 hrs by flow cytometry using propidium iodide staining. The class given is functional.
Assay [17] has as its system DU-145. As to the kind of experiment: Cell cycle arrest in human DU145 cells assessed as accumulation between G1 phase and G2M phase at 100 uM after 24 hrs by flow cytometry using propidium iodide staining. The class given is functional.
Assay [18] deals with DU-145. As to the kind of experiment: Cell cycle arrest in human DU145 cells assessed as accumulation at < G2M phase at 50 uM after 24 hrs by flow cytometry using propidium iodide staining. The class given is functional.
In assay [19] the test system is DU-145. As to the kind of experiment: Cell cycle arrest in human DU145 cells assessed as accumulation at >G1 phase at 50 uM after 24 hrs by flow cytometry using propidium iodide staining. The class given is functional.
In assay [20] the test system is DU-145. The assay can be described thus: Cell cycle arrest in human DU145 cells assessed as accumulation at < G2M phase at 100 uM after 24 hrs by flow cytometry using propidium iodide staining. The assay is classed as functional.
In assay [21] the test system is DU-145. The assay can be described thus: Cell cycle arrest in human DU145 cells assessed as accumulation at >G1 phase at 100 uM after 24 hrs by flow cytometry using propidium iodide staining. The assay is classed as functional.
Assay [22] concerns DU-145. As to the kind of experiment: Induction of apoptosis in human DU145 cells at interphase assessed as alteration in microtubule array at 100 uM after 24 hrs by beta tubulin immunofluorescent staining. The assay is classed as functional, cell-based.
Assay [23] concerns DU-145. As to the kind of experiment: Cell cycle arrest in human DU145 cells assessed as accumulation at G2M phase at 50 uM after 24 hrs by flow cytometry using propidium iodide staining. The class given is functional.
In assay [24] the test system is DU-145. The assay can be described thus: Cell cycle arrest in human DU145 cells assessed as accumulation at G1 phase at 50 uM after 24 hrs by flow cytometry using propidium iodide staining. The class given is functional.
The subject of assay [25] is DU-145. The assay can be described thus: Induction of apoptosis in human DU145 cells at interphase assessed as dencer microtubue network at 2 nM after 24 hrs by beta tubulin immunofluorescent staining. The assay is classed as functional, cell-based.
The subject of assay [26] is DU-145. As to the kind of experiment: Induction of apoptosis in human DU145 cells at interphase assessed as curly appearance of microtubules at 1 nM after 24 hrs by beta tubulin immunofluorescent staining. The class given is functional, cell-based.

Calls of active or inactive are those of the source. No cut-off for these calls is given here.

Take `CC(=O)OC[C@H]1O[C@@H](O[C@H]2C=C[C@@H](Oc3cc(O)c4c(=O)c(-c5ccc(O)cc5)coc4c3)O[C@@H]2COC(C)=O)[C@H](OC(C)=O)[C@@H](OC(C)=O)[C@H]1OC(C)=O`: the Activity in the assay with DU-145 [1] is 1.4%; with DU-145 [2], 5.7%; with DU-145 [3] it was 1.7%; in the assay with DU-145 [4], 7.5%; with DU-145 [5], 30%; with DU-145 [8] it was 54.5%. For the same compound, the Activity is listed as 26.5% in the assay with DU-145 [9]; 10.1% in the assay with DU-145 [10]; 57.8% in the assay with DU-145 [11]; 23.4% in the assay with DU-145 [12]; 11.4% in the assay on DU-145 [13]. Further, the outcome in the assay with DU-145 [6] and with DU-145 [7] was Active.
Take `O=c1c(-c2ccc(O)cc2)coc2cc(O)cc(O)c12` [GENISTEIN]: the Activity in the assay on DU-145 [14] stood at 19.2%; with DU-145 [15], 27.2%; in the assay on DU-145 [16] it was 44.3%; in the assay on DU-145 [17] it was 20.8%; in the assay on DU-145 [18] it was 2.8%; in the assay on DU-145 [19], 5.1%. The Activity with DU-145 [20] is given as 1.6%; with DU-145 [21], 6.1%; with DU-145 [23], 17.1%; with DU-145 [24], 55.9%. The result in the assay on DU-145 [22] was inactive.
`CC(=O)O[C@H]1C(=O)[C@@]2(C)[C@H]([C@H](OC(=O)c3ccccc3)[C@]3(O)C[C@H](OC(=O)[C@H](O)[C@@H](NC(=O)c4ccccc4)c4ccccc4)C(C)=C1C3(C)C)[C@]1(OC(C)=O)CO[C@@H]1C[C@@H]2O`: in the assay on DU-145 [25], the result was Active.
On to `CC[C@]1(O)C[C@@H]2CN(CCc3c([nH]c4ccccc34)[C@@](C(=O)OC)(c3cc4c(cc3OC)N(C)[C@H]3[C@@](O)(C(=O)OC)[C@H](OC(C)=O)[C@]5(CC)C=CCN6CC[C@]43[C@@H]65)C2)C1`, for which, in the assay on DU-145 [26], the outcome was Active.
